Experimental data taken from patent US10195156B2, “Compounds and compositions for intracellular delivery of agents” (ModernaTX, Inc., priority 2015, dated 2019).

What was measured:
[1] = Particle size and polydispersity index of nanoparticle compositions (Zetasizer Nano ZS); type: physicochemical; details: for particle size, rank within the named table (in words): comparison amongst compositions
Method in brief: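 Nanoparticle compositions are diluted in 1×PBS, then size and polydispersity index are read on a Zetasizer Nano ZS instrument.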

[2] = test system: luciferase (Luc) mRNA expression; experiment: Expression of Luc induced by sample formulations, whole-body bioluminescence after intravenous administration; type: in vivo; details: mice, i.v., 0.5 mg/kg
Method in brief: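 Mice (n=6) dosed intravenously with Luc mRNA nanoparticle formulations at 0.5 mg/kg. Whole-body bioluminescence measured at 3, 6 and 24 h. Standard MC3 formulation and PBS control run alongside.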

[3] = Encapsulation efficiency of RNA (QUANT-IT RIBOGREEN RNA assay); type: physicochemical; details: for encapsulation efficiency, rank within the named table (in words): comparison amongst compositions
Method in brief: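 Nanoparticle samples diluted to ~5 μg/mL RNA in TE buffer (pH 7.5), incubated with or without 2% Triton X-100 solution at 37 °C for 15 min, then RiboGreen added. Fluorescence read at ~480/520 nm, blank-subtracted; free RNA % = intact over Triton-disrupted signal.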

[4] = pKa of nanoparticle compositions; type: physicochemical
[5] = test system: modified luciferase expression; experiment: Expression of Luc in different organs (liver, lung, spleen, femur) 6 hours after intravenous administration; type: in vivo; details: i.v., 0.5 mpk
Procedure: The efficacy of the nanoparticle compositions presented in Tables 1, 1a, 17-1, 19-1, 20-1 and 21-1 was further evaluated by measuring the expression of modified luciferase in the liver, lung, spleen, and femur upon administration of a given composition. Formulations were administered intravenously to mice (n=3) at a dosage of 0.5 mpk and bioluminescence measured after 6 hours. The standard MC3 formulation and a PBS control were also tested.

[6] = Lipid clearance: % dose remaining in mouse liver 6 h and 24 h after administration of nanoparticle compositions; type: in vivo, CD-1 mice; details: CD-1 mice
From the text: In contrast, hEPO expression in rats induced by administration of a nanoparticle composition including a compound according to one of formulae (I), (Ia1)-(Ia6), (Ib), (II), (IIa), (III), and (IIIa) was substantially […] than that measured for MC3. […] Table 7c and 7d show additional protein expressions and clearance data from compositions with various compounds disclosed herein as compared to with MC3.

[7] = test system: IP-10; experiment: Cytokine production induced by sample formulations: IP-10; type: in vivo; details: mice, i.v., 0.5 mpk, 6 hours; for IP-10: in pg/mL (unit assumed)
Method in brief: (§1)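 Mice received nanoparticle formulations intravenously at 0.5 mpk, with standard MC3 formulation and PBS as controls. Cytokine concentrations were measured 6 hours after dosing.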

[8] = test system: IL-6; experiment: Cytokine production induced by sample formulations: IL-6; type: in vivo; details: mice, i.v., 0.5 mpk, 6 hours; for IL-6: in pg/mL (unit assumed)
Method in brief: as §1

[9] = Table 1, rows without footnote mark
[10] = Table 1, rows without footnote mark (lipid:DOPE:cholesterol:PEG-DMG 40:20:38.5:1.5, Luc mRNA; MC3 standard formulation)
[11] = Table 1, * formulated with lipid:DSPC:Chol:PEG-DMG 50:10:38.5:1.5
[12] = Table 1, * lipid:DSPC:Chol:PEG-DMG 50:10:38.5:1.5

Compound | PDI [1, 9] | Size (nm) [1, 10] | Total Flux 6 hours ([2]; Table 2) | EE (%) [3, 9] | pKa [4, 9] | Total Flux Liver ([5]; Table 3, mice) | Total Flux Spleen ([5]; Table 3, mice) | % Dose remaining 6 h CD-1 mice [6] | % Dose remaining 24 h CD-1 mice [6] | particle size, rank within the named table (in words) [1] | encapsulation efficiency, rank within the named table (in words) [3] | IP-10 ([7]; Table 4) | Total Flux 3 hours ([2]; Table 2) | Total Flux 24 hours ([2]; Table 2, 24 hours) | IL-6 ([8]; Table 4) | Total Flux Lung ([5]; Table 3, mice) | further results
CCCCCCCCCN(CCCCCCCCC)CCN(CCCCCCCC(=O)OC)CC(=O)N1CCN(C(=O)CN(CCCCCCCCC)CCCCCCCCC)CC1 [Compound 47, Methyl 8-((2-(dinonylamino)ethyl)(2-(4-(dinonylglycyl)piperazin-1-yl)-2-oxoethyl)amino)octanoate] | 0.180 | 89.8 nm | 2.64E+09 | 53.1% | 6.82 | 4.95E+08 | 1.42E+08 | 1% | <1% |  |  |  |  |  |  |  | 
CCCCCCCCCN(CCCCCCCCC)CCN(CCCCCCCCC)CCC1CCN(C(=O)CN(CCCCCCCCC)CCCCCCCCC)CC1 [Compound 50, 2-(Dinonylamino)-1-(4-(2-((2-(dinonylamino)ethyl)(nonyl)amino)ethyl)piperidin-1-yl)ethan-1-one] | 0.190 | 65.6 nm | 1.48E+08 | 98.7% | 5.55 | 2.14E+07 | 1.94E+05 | 56% | 47% | smallest particles |  |  |  |  |  |  | 
CCCCCCCCCN(CCCCCCCCC)CCN(CCCCCCCCC)CC(=O)N1CCN(C(=O)CN(CCCCCCCCC)CCCCCCCC(=O)OC)CC1 [Compound 44, Methyl 8-((2-(4-(N-(2-(dinonylamino)ethyl)-N-nonylglycyl)piperazin-1-yl)-2-oxoethyl)(nonyl)amino)octanoate] | 0.190 | 94.9 nm | 1.07E+10 | 89.5% | 6.82 | 1.11E+09 | 1.19E+08 | <1% | <1% |  |  |  |  |  |  |  | 
CCCCCCCCCCCCCCN(CCCCCCCCCCCCCC)CC(=O)N1CCN(C(=O)CN(CCCCCCCCC)CCN(CCCCCCCCC)CCCCCCCCC)CC1 [Compound 51, 2-((2-(Dinonylamino)ethyl)(nonyl)amino)-1-(4-(ditetradecylglycyl)piperazin-1-yl)ethan-1-one] | 0.190 | 76.6 nm | 6.70E+10 | 98.4% | 6.44 | 3.55E+09 | 2.24E+07 | 54% | 41% |  |  |  |  |  |  |  | 
CCCCC/C=C\C/C=C\CCCCCCCCN(CCO)CCCCCC [Compound 17-2, 2-(Hexyl((9Z,12Z)-octadeca-9,12-dien-1-yl)amino)ethan-1-ol] |  |  |  |  |  |  |  |  |  | largest particles | did not encapsulate RNA with high efficiency |  |  |  |  |  | IP-10 ([7]; Table 17-4): 72.8; IP-10 induction, rank or comparison with IL-6 (in words) [7]: lowest IP-10 levels; PDI ([1]; Table 17-1): 0.104; Size (nm) ([1]; Table 17-1): 136.9 nm; Total Flux 3 hours ([2]; Table 17-2): 2.83E+05; Total Flux 6 hours ([2]; Table 17-2): 3.76E+05; Total Flux 24 hours ([2]; Table 17-2, 24 hours): 2.64E+05; IL-6 ([8]; Table 17-4): 9.88; IL-6 induction, rank within the named table (in words) [8]: lowest IL-6 levels; EE (%) ([3]; Table 17-1): 57.2%; pKa ([4]; Table 17-1): 6.92; Total Flux Liver ([5]; Table 17-3, mice): 6.42E+04; Total Flux Lung ([5]; Table 17-3, mice): 1.96E+04; Total Flux Spleen ([5]; Table 17-3, mice): 4.16E+04
CCCCC/C=C\C/C=C\CCCCCCCCN(CCCCCCCC/C=C\C/C=C\CCCCC)CCN1CCN(CCN(CCCCCCCCCCCC)CCN(CCCCCCCCCCCC)CCCCCCCCCCCC)CC1 [Compound 29, N^1-(2-(4-(2-(Di((9Z,12Z)-octadeca-9,12-dien-1-yl)amino)ethyl)piperazin-1-yl)ethyl)-N^1,N^2,N^2-tridodecylethane-1,2-diamine] | 0.060 | 105.3 nm | 2.51E+08 | 48.8% | 5.97 | 2.27E+07 | 2.97E+06 |  |  |  |  | 3454 | 1.22E+08 | 2.69E+07 | 108 | 4.70E+05 | 
CCCCCCCCCN(CCCCCCCCC)CCN(CCCCCCCCC)CCN1CCNCC1 [Compound 36, N^1,N^1,N^2-Trinonyl-N^2-(2-(piperazin-1-yl)ethyl)ethane-1,2-diamine] |  |  | 3.93E+05 |  |  | 5.85E+04 | 1.24E+05 |  |  |  | highest | 118 | 6.90E+05 | 1.68E+05 | 41 | 2.74E+04 | IP-10 induction, rank or comparison with IL-6 (in words) [7]: lowest IP-10 expression; Size (nm) [1, 11]: 100.8 nm; PDI [1, 12]: 0.110; total flux after 24 hours, rank within the named table (in words) ([2]; 24 hours): lowest flux after 24 hours; EE (%) [3, 12]: 100.2%; pKa [4, 12]: 7.81
CCCCCCCC/C=C\CCCCCCCCN(CCCCCCCC/C=C\CCCCCCCC)CCN(CCCCCCCC/C=C\CCCCCCCC)CCN1CCNCC1 [Compound 40, N^1,N^1,N^2-Tri((Z)-octadec-9-en-1-yl)-N^2-(2-(piperazin-1-yl)ethyl)ethane-1,2-diamine] |  |  | 1.07E+07 |  |  | 1.33E+06 | 5.68E+05 |  |  |  | highest | 919 | 1.24E+08 | 5.62E+06 | 134 | 1.42E+05 | Size (nm) [1, 11]: 78.9 nm; PDI [1, 12]: 0.210; EE (%) [3, 12]: 100.0%; pKa [4, 12]: 6.78
CCCCCCCCCN(CCO)CCCCCCCCC [Compound 17-10, 2-(Dinonylamino)ethan-1-ol] |  |  |  |  |  |  |  |  |  | largest particles | did not encapsulate RNA with high efficiency |  |  |  |  |  | IP-10 ([7]; Table 17-4): 243; PDI ([1]; Table 17-1): 0.239; Size (nm) ([1]; Table 17-1): 165.0 nm; Total Flux 3 hours ([2]; Table 17-2): 6.61E+05; Total Flux 6 hours ([2]; Table 17-2): 1.16E+06; Total Flux 24 hours ([2]; Table 17-2, 24 hours): 4.06E+05; IL-6 ([8]; Table 17-4): 7.33; IL-6 induction, rank within the named table (in words) [8]: lowest IL-6 levels; EE (%) ([3]; Table 17-1): 30.3%; pKa ([4]; Table 17-1): 2.85; Total Flux Liver ([5]; Table 17-3, mice): 2.00E+05; Total Flux Lung ([5]; Table 17-3, mice): 2.52E+04; Total Flux Spleen ([5]; Table 17-3, mice): 1.74E+04
CCCCCCCCCCCCCCN(CCCCCCCCCCCCCC)CCN1CCN(CCN(CCCCCCCCCCCC)CCN(CCCCCCCCCCCC)CCCCCCCCCCCC)CC1 [Compound 26, N^1-(2-(4-(2-(Ditetradecylamino)ethyl)piperazin-1-yl)ethyl)-N^1,N^2,N^2-tridodecylethane-1,2-diamine] |  |  | 1.04E+07 |  |  | 2.35E+06 | 2.30E+05 |  |  |  |  | 175 | 1.65E+07 | 2.75E+06 | 17 | 3.49E+04 | Size (nm) [1, 11]: 74.2 nm; PDI [1, 12]: 0.112; EE (%) [3, 12]: 84.9%; pKa [4, 12]: 6.19
CCCCCCCCCCCCN(CCCO)CCCCCCCCCCCC [Compound 17-12, 3-(Didodecylamino)propan-1-ol] |  |  |  |  |  |  |  |  |  | smallest particles |  |  |  |  |  |  | IP-10 ([7]; Table 17-4): 148; PDI ([1]; Table 17-1): 0.148; Size (nm) ([1]; Table 17-1): 76.1 nm; Total Flux 3 hours ([2]; Table 17-2): 2.94E+06; Total Flux 6 hours ([2]; Table 17-2): 2.54E+06; Total Flux 24 hours ([2]; Table 17-2, 24 hours): 4.66E+05; IL-6 ([8]; Table 17-4): 83.1; EE (%) ([3]; Table 17-1): 95.04%; pKa ([4]; Table 17-1): 6.83; Total Flux Liver ([5]; Table 17-3, mice): 4.94E+05; Total Flux Lung ([5]; Table 17-3, mice): 4.89E+04; Total Flux Spleen ([5]; Table 17-3, mice): 7.81E+04
